The test system of one data set is O+ human red blood cells. Description: Hemolysis assay. The class given is cell-based. The settings on record: 100 µM, 10% human RBC suspension in PBS pH 7.4, 3 h at 37 °C, A540, triplicate, p > 0.9. As for the experimental part:
About 200 µL of O + human red blood cells were washed three times in PBS (pH 7.4) and then suspended with 1 ml of PBS. Then, 0.3 ml of suspension was diluted with 3 mL of PBS to obtain a 10% suspension. All tested compounds were dissolved in DMSO to prepare a series of dilutions of 1 nM, 10 nM, 100 nM, 1 µM, 10 µM, and 100 µM. The erythrocyte suspension (100 μl per well) was added to a 96-well plate, and the samples were rapidly stirred and incubated at 37 °C with periodic stirring during a 3-h incubation period. The solution was then centrifuged at 2,000 rpm for 5 min. The absorbance of the supernatant was measured at 540 nm using a microplate, and the hemolytic ratio (%) was calculated by comparison with the 100% hemolytic activity caused by distilled water as maximal hemolytic control. The hemolytic % developed by the PBS control was subtracted from all groups. Each experiment was performed in triplicate.

The nature of data set [1]: Cytotoxicity assay, MTT, HEK293. The class given is cell-based, human. The following applies: 24 h incubation at 37 °C, three replicates. As for the experimental part: (§1) Two methods and two types of cells were used to analyze the general cytotoxicity of small molecules. First, MTT (3-(4,5-dimethylthiazol-2-yl)-2,5-diphenyl tetrazolium bromide; Thermo-fisher) and human embryonic kidney 293 (HEK293) were used in cytotoxicity assays. About 20,000 HEK293 cells in 200 µl of culture medium [Dulbecco’s modified eagle medium (DMEM) with high glutamine and 10% fetal bovine serum] were seeded per well in 96-well microplates. About 1 µl of the compounds in DMSO at various dilutions was added into each well to obtain final concentrations of 0, 10, 100, and 1000 ng/mL. Three replicates were conducted for each concentration. Following incubation at 37 °C with 5% CO2 for 24 h, 10 µL of MTT (5 mg/mL in PBS) was added to each well and incubated for 4 h at 37 °C with 5% CO2. All but 25 µL of the medium was removed from the wells, and 100 µL of DMSO was added to each well and incubated at 37 °C for 10 min to dissolve formazan crystals for measurement. Optical density was measured at an absorbance wavelength of 540 nm.

The subject of data set [2] is human embryonic kidney 293 (HEK293) cells. The data set is described as follows: Cytotoxicity assay, MTT, HEK293. The class given is cell-based. As to the method:
as §1

In data set [3] the test system is K562 cell line (human immortalized myelogenous leukemia cell). The data set is described as follows: Cell proliferation assay, CCK-8 kit, K562. The format is cell-based. As for the experimental part:
Second, the CCK-8 kit (Sigma) and K562 cell line (human immortalized myelogenous leukemia cell) were used to determine the inhibition of a compound against cell proliferation. About 20,000 cells in 200 µl of culture medium (RMPI-1640 with 10% fetal bovine serum) were seeded per well in 96-well microplates, and then a series of dilutions of the compound from 0 to 1000 ng/ml was added to the medium. The cells were maintained at 37 °C and 5% CO2 for 48 h, and then 20 μl of the CCK-8 solution was added to each well of the plate. The plate was incubated for 1 h, and the A450 was measured using a microplate.

The test system of a further data set is mice. Set-up: method as in 2 sources, ref 9 = [9]; PMID 4783199; doi:10.7164/antibiotics.26.157; 9. Arai T Mikami Y Fukushima K Utsumi T Yazawa K A new antibiotic, leucinostatin, derived from Penicillium lilacinum J Antibiot (Tokyo) 1973 26 157 161 10.7164/antibiotics.26.157 4783199 Arai T, Mikam ||| ref 10 (Mikami et al.). The following applies: intraperitoneal injection; cited from earlier work.

A short description of data set [4]: Reverse-phase C18 HPLC elution time as measure of hydrophobicity. The format is physicochemical. The following applies: chromatographic; semi-prep C18 column (Gemini 5 μm 110A, 250 × 10 mm), gradient 50% methanol to 100% methanol in 50 min, 1 ml per min, A254; approximate time. As to the method: LA and LB were purified from P. lilacum as described. LA/LB mixture (Sigma) was also purchased from Sigma. LB C-terminus were modified by linking biotin and Atto495. Around 0.4 µmol of LB and 8 µmol of amine-reactive EZ-Link™ NHS-LC-Biotin (Invitrogen; molar ratio: 1:20) were mixed in 2 mL of PBS buffer (pH = 7.2) and reacted for continuous stirring 4 h at room temperature. Then, the reaction sample was analyzed and purified by semi-prep high-performance liquid chromatography (HPLC; Shimadzu) C18 column (Gemini 5 μm 110A, 250 × 10 mm) with gradient elution of 50% methanol to 100% methanol in 50 min. The flow rate was 1 ml per min. The LB-biotin conjugate fraction was dried at room temperature with a rotary vacuum evaporator (Heidolph).
The reaction of LB with amine-reactive Atto495 NHS ester (Sigma) was conducted in DMSO. Firstly, Atto495 NHS ester (3 mM), LB (1 mM), and triethylamine (100 mM) were mixed in DMSO in a 0.2 mL reaction volume and reacted at room temperature for 4 h with continuous stirring while protected from light. The reaction solution was applied to semi-prep HPLC to obtain the conjugate of LB-Atto495 as described above, and the LB-Atto495 was dried for use.
The pure LB was reacted with amine-reactive Atto495 NHS ester in DMSO. The reaction solution was applied to semi-prep HPLC. The conjugate of LB-Atto495 was eluded at 29 min (Fig. 2b). […] On the basis of elution times from the HPLC C18 column, the hydrophobicity of four compounds is LB < LA < LB-Atto495 < LB-biotin.

The next data set has as its system Hela cells. The settings on record: read-out: IC50 against Hela cells; cited from earlier work. As for the experimental part:
Leucinostatins have antimicrobial activity against gram-positive bacteria, including Staphylococcus albus, Bacillus subtilis, Sarcina letter, Streptococcus pyrogens, Streptococcus faecalis, and Mycobacterium species, with IC50 values ranging from 2.5 to 100 μM and against some fungal strains with minimal inhibitory concentrations of 10–25 μM [9–11]. In addition, leucinostatins are known as mycotoxins. The IC50 of leucinostatin Α (LA) to MRC-5 (human fetal lung fibroblast cells) is 2 μΜ [12]. […] The IC50 of LA against H ...

The test system of data set [5] is P. falciparum transmission to mosquitoes. The data set is described as follows: Standard membrane feeding assay (SMFA), malaria transmission-blocking activity. The class given is in vivo, Plasmodium falciparum (NF54) in Anopheles gambiae (G3). The following applies: same set of cultured parasites and mosquitoes, Fig. 3d. As for the experimental part:
As we described previously, we maintained An. gambiae (G3 strain) at 27 °C with 80% humidity and a 12 h day/night cycle. Larvae were fed fish food for koi, adult mosquitoes were maintained with 10% sugar in water, and female mosquitoes were fed with purchased human blood to lay eggs. Eggs were collected 48 h after blood-feeding with wet filter papers and hatched in pure water.
P. falciparum (NF54) was cultured in the lab with 4% O + -type red blood cells in a complete Roswell Park Memorial Institute (RPMI) 1640 medium with 10% human AB + serum and 12.5 μg/ml of hypoxanthine in a candle jar at 37 °C. Then, 15-day-old cultured P. falciparum-infected cells were collected through centrifugation (300 g for 3 min), and about 100 μl of pellet were resuspended in 1.5 ml fresh AB + -type serum and mixed with 1.4 ml O + -type red blood cells, containing about 0.2% stage V gametocytes. Each candidate compound was dissolved in dimethylsulfoxide (DMSO) and diluted with DMSO to obtain different concentrations. About 2 μl of candidate solution was mixed with 298 μl of P. falciparum-infected blood prepared above and was used to feed 60–80 3–5-day-old An. gambiae with feeders covered with parafilm at 37 °C for 30 min. […] The midguts were stained with 0.1% mercury dibromofluorescein disodium salt in phosphate-buffered saline (PBS), and the oocysts were counted under a light microscope.

Data set [6] concerns P. falciparum gametocytes. Description: Distribution of LB-Atto495 in live gametocytes by fluorescence microscopy. The class given is cell-based, Plasmodium falciparum. The following applies: LB-Atto495 (1 µl of 1 mM in 100 µl) incubated 6 h at room temperature, fluorescent microscope. As for the experimental part: The 15-day-old cultured P. falciparum was collected from a six-well plate. After centrifugation (300 g for 3 min), the cells were washed with 1 ml of PBS three times at room temperature. About 10 μl of cells was suspended in 100 μl of PBS, and 1 μl of LB-Atto495 (1 mM in DMSO) was added and mixed. The cells were incubated at room temperature in the dark for 6 h. The mixture was centrifuged at 300 g for 3 min to collect cells, which were washed three times with 200 μl of PBS. Finally, the cells were deposited on slides to make a blood smear and fixed with methanol. The vector shield antifade mounting medium for fluorescence (VectorLabs, CA) was dropped on the slides. The slides were covered with coverslips and examined under a fluorescent microscope (Nikon Eclipse Ti-S).

Entries after “also recorded” stand apart in the source; their conditions may differ. *1 amine or outer side, *2 acyl side, *3 side chain or, on linkers, in order; H or OH if unused. Where a SMILES comes first, the peptide text is derived from it. [ ]: non-standard residue; d: D form. The star is where a group is joined. X3 = C[C@@H](CN(C)C(=O)CCCCCNC(=O)CCCC[C@@H]1SC[C@@H]2NC(=O)N[C@@H]21)N*; X2 = C[C@@H](CN(C)C(=O)CCC[n+]1c2cc(N(C)C)ccc2cc2ccc(N(C)C)cc21)N*; X1 = CCC(=O)C[C@H](O)C[C@@H](C)C[C@H](N[*:1])C(=O)[*:2]; Hexenoyl(2E,4S-Me) = CC[C@H](C)/C=C/C(=O)*; Leu(3R-OH) = CC(C)[C@@H](O)[C@H](N)C(=O)O; NH((S)CH(Me)CH2NMe2) = C[C@@H](CN(C)C)N*; Pro(4S-Me) = C[C@@H]1CN[C@H](C(=O)O)C1; NH((S)CH(CH3)CH2NHMe) = CNC[C@H](C)N*; Aib = CC(C)(N)C(=O)O; βAla = NCCC(=O)O

Turning to `CCC(=O)C[C@H](O)C[C@@H](C)C[C@H](NC(=O)[C@@H]1C[C@H](C)CN1C(=O)/C=C/[C@@H](C)CC)C(=O)N[C@H](C(=O)NC(C)(C)C(=O)N[C@@H](CC(C)C)C(=O)N[C@@H](CC(C)C)C(=O)NC(C)(C)C(=O)NC(C)(C)C(=O)NCCC(=O)N[C@@H](C)CN(C)C)[C@H](O)C(C)C` [LA, leucinostatin A] ({Hexenoyl(2E,4S-Me)}-[Pro(4S-Me)][X1][Leu(3R-OH)][Aib]LL[Aib][Aib][βAla]-{NH((S)CH(Me)CH2NMe2)}), the “Hemolysis of red blood cells” value with O+ human red blood cells is “not significantly different”; in the data set on O+ human red blood cells (listed as leucinostatin A), “did not lyse erythrocytes”. Moreover, the half-inhibitory concentration (IC50) was 89.6 nM in data set [1] and about 40 nM with Hela cells. Besides, in [2] (10 ng/mL, p > 0.7), the “Density of living cells versus 0 control, HEK293” value is “no significant difference”. For the same compound, the “Reduction of cell proliferation, HEK293” value in data set [2] (100 nM, 24 h) is 38%. Further, the “Density of living cells versus 0 control, K562” value in [3] (10 ng/mL, CCK-8, p > 0.6) is on record as “no significant difference”. Moreover, the “Reduction of cell proliferation, K562” value in data set [3] (100 nM, CCK-8, 48 h) was determined as 43.7%. In addition, in the data set on mice, the LD50 is listed as 1.6 mg/kg. Besides, the “HPLC elution time (hydrophobicity)” value in [4] is recorded as about 28.3 min.

For the compound `CCC(=O)C[C@H](O)C[C@@H](C)C[C@H](NC(=O)[C@@H]1C[C@H](C)CN1C(=O)/C=C/[C@@H](C)CC)C(=O)N[C@H](C(=O)NC(C)(C)C(=O)N[C@@H](CC(C)C)C(=O)N[C@@H](CC(C)C)C(=O)NC(C)(C)C(=O)NC(C)(C)C(=O)NCCC(=O)N[C@@H](C)CNC)[C@H](O)C(C)C` [LB, leucinostatin B] ({Hexenoyl(2E,4S-Me)}-[Pro(4S-Me)][X1][Leu(3R-OH)][Aib]LL[Aib][Aib][βAla]-{NH((S)CH(CH3)CH2NHMe)}), the “HPLC elution time (hydrophobicity)” value in data set [4] was about 27.5 min. The “Blocking of P. falciparum transmission to mosquitoes at 10 nM” value in data set [5] is given as “completely blocked”.

With `CCC(=O)C[C@H](O)C[C@@H](C)C[C@H](NC(=O)[C@@H]1C[C@H](C)CN1C(=O)/C=C/[C@@H](C)CC)C(=O)N[C@H](C(=O)NC(C)(C)C(=O)N[C@@H](CC(C)C)C(=O)N[C@@H](CC(C)C)C(=O)NC(C)(C)C(=O)NC(C)(C)C(=O)NCCC(=O)N[C@@H](C)CN(C)C(=O)CCC[n+]1c2cc(N(C)C)ccc2cc2ccc(N(C)C)cc21)[C@H](O)C(C)C` [LB-Atto495] ({Hexenoyl(2E,4S-Me)}-[Pro(4S-Me)][X1][Leu(3R-OH)][Aib]LL[Aib][Aib][βAla]-X2), the “Location in live P. falciparum gametocytes” value in data set [6] was “colocalized with mitochondria; also recorded: binds mitochondria specifically in parasites”. Besides, the “HPLC elution time (hydrophobicity)” value in [4] was found to be 29 min.

On to `CCC(=O)C[C@H](O)C[C@@H](C)C[C@H](NC(=O)[C@@H]1C[C@H](C)CN1C(=O)/C=C/[C@@H](C)CC)C(=O)N[C@H](C(=O)NC(C)(C)C(=O)N[C@@H](CC(C)C)C(=O)N[C@@H](CC(C)C)C(=O)NC(C)(C)C(=O)NC(C)(C)C(=O)NCCC(=O)N[C@@H](C)CN(C)C(=O)CCCCCNC(=O)CCCC[C@@H]1SC[C@@H]2NC(=O)N[C@@H]21)[C@H](O)C(C)C` [LB-biotin] ({Hexenoyl(2E,4S-Me)}-[Pro(4S-Me)][X1][Leu(3R-OH)][Aib]LL[Aib][Aib][βAla]-X3), for which, in data set [4], the “HPLC elution time (hydrophobicity)” value is on record as about 31.5 min. In addition, in [5], the “Blocking of P. falciparum transmission to mosquitoes at 10 nM” value is listed as “did not inhibit”.

On to `O=C(CCCC[C@@H]1SC[C@@H]2NC(=O)N[C@@H]21)NCCCCCC(=O)ON1C(=O)CC(S(=O)(=O)[O-])C1=O.[Na+]` (some centres unmarked) [sulfo-NHS-LC-Biotin], for which the “HPLC elution time (hydrophobicity)” value in [4] is listed as about 16.5 min.

The term IC50 denotes the concentration at which inhibition is half-maximal. For orientation: LD50 means the dose expected to kill half of the subjects tested.
